From patent US20220062380A1 (priority 2018, published 2022)
Where no end group is shown, it is not given here.

Columns and labels:
plasma corticosterone = experiment: Plasma corticosterone levels in the Saelens precipitated withdrawal model, Protocol B (Example 3); assay type: in vivo, mouse; details: morphine-treated mice, naloxone-precipitated withdrawal; for plasma corticosterone levels: TCAP-1 250 nmole/kg vs. CP154,526 5, 20, 50 mg/kg
Method: Two hours after the 11 a.m. injections, at 1 p.m., all mice received an intraperitoneal (“i.p.”) injection of Naloxone 2.5 mg/kg), baseline blood samples were taken and then they were immediately placed individually in an observation area and video recorded 20 minutes. The number of jumps (lifting of all feet off the ground) were recorded for 20 minutes. A second set of blood samples were taken post-jumps (about 30 minutes after the naloxone administration.
The same protocol as in Protocol A was followed with the exception that on day 2, there were three Group 3 mice (10 per group) which were administered: 5 mg/kg, 20 mg/kg or 50 mg/kg of the CRH antagonist CP154,526.

Swiss Webster mice [1] = experiment: Saelens drug-precipitated withdrawal in the mouse, TCAP-1 pre-morphine (Example 1); assay type: in vivo
Swiss Webster mice [2] = experiment: Saelens precipitated withdrawal test, single dose TCAP-1 post-morphine (Example 2); assay type: in vivo, mouse; details: Group 4: TCAP-1 500 nmole/kg s.c. single dose post-morphine; naloxone 10 mg/kg i.p.
Swiss Webster mice [3] = experiment: Saelens precipitated withdrawal test, CRH antagonist vs. TCAP-1, Protocol A (Example 3); assay type: in vivo, mouse; details: TCAP-1 250 nmole/kg per time point vs. CRH antagonist 20 mg/kg per time point; morphine-treated mice; naloxone 2.5 mg/kg i.p.
Swiss Webster mice [4] = experiment: Saelens precipitated withdrawal test, CRH antagonist dose response vs. TCAP-1, Protocol B, jumps (Example 3); assay type: in vivo, mouse; details: TCAP-1 250 nmole/kg vs. CP154,526 5, 20, 50 mg/kg; morphine-treated mice; naloxone 2.5 mg/kg i.p.

Compound	plasma corticosterone levels (plasma corticosterone)	dose needed to approach TCAP-1 250 nmole/kg effect on corticosterone levels (plasma corticosterone)	Mean # Jumps over 20 Minutes (Swiss Webster mice [1]; Group 8: saline days 1-3, saline day 4-5, MK801 on day 5, no morphine, no naloxone, n = 4)	Mean # Jumps over 20 Minutes (Swiss Webster mice [1]; TCAP-1 10 nmole/kg s.c. days 1-3, morphine 32 mg/kg i.p. days 4-5, naloxone 10 mg/kg i.p., n = 3)	Mean # Jumps over 20 Minutes (Swiss Webster mice [1]; TCAP-1 25 nmole/kg s.c. days 1-3, morphine 32 mg/kg i.p. days 4-5, naloxone 10 mg/kg i.p., n = 9)	Mean # Jumps over 20 Minutes (Swiss Webster mice [1]; TCAP-1 50 nmole/kg s.c. days 1-3, morphine 32 mg/kg i.p. days 4-5, naloxone 10 mg/kg i.p., n = 9)	Mean # Jumps over 20 Minutes (Swiss Webster mice [1]; TCAP-1 100 nmole/kg s.c. days 1-3, morphine 32 mg/kg i.p. days 4-5, naloxone 10 mg/kg i.p., n = 9)	Mean # Jumps over 20 Minutes (Swiss Webster mice [1]; TCAP-1 250 nmole/kg s.c. days 1-3, morphine 32 mg/kg i.p. days 4-5, naloxone 10 mg/kg i.p., n = 9)	jump rate after naloxone-precipitated morphine withdrawal (Swiss Webster mice [1]; TCAP-1 10-250 nmole/kg pre-morphine vs. morphine alone)	number of jumps in 20 minutes after naloxone (Swiss Webster mice [2])	number of jumps/20 minutes after naloxone (Swiss Webster mice [3])	number of jumps/20 minutes (Swiss Webster mice [4])
CCCCN(CC)c1nc(C)nc2c1c(C)cn2-c1c(C)cc(C)cc1C [CP154,526]	still had an effect	at least 50 mg/kg										
C[C@]12N[C@H](Cc3ccccc31)c1ccccc12 [MK801, reference compound]			0									
Teneurin C-Terminal Associated Peptide-1 (QQLLGTGRVQGYDGYFVLSVEQYLELSDSANNIHFMRQSEI-NH2) [TCAP-1, mouse TCAP-1 in some experiments]	more effective in reducing plasma corticosterone levels in the mice at lower dosage levels			47	47	42	32	16	reduced jump rates in a dose dependent manner	significantly reduced the number of jumps	much more effective and at lower dosages in significantly lowering the number of jumps	more effective in reducing the number of jumps/20 minutes
